{
  "source": "patent US10378058B2",
  "about": "“Diagnostic and therapeutic methods and compositions involving PTEN and breast cancer” (Board of Regents of The University of Texas System, priority 2003, dated 2019)",
  "key": {"Src": {"biological_target": "T1, Src (Homo sapiens, UniProt P12931)", "T1 construct": "endogenous in cells; host or cells: 435.eB cells", "T1 sequence (P12931 whole entry)": "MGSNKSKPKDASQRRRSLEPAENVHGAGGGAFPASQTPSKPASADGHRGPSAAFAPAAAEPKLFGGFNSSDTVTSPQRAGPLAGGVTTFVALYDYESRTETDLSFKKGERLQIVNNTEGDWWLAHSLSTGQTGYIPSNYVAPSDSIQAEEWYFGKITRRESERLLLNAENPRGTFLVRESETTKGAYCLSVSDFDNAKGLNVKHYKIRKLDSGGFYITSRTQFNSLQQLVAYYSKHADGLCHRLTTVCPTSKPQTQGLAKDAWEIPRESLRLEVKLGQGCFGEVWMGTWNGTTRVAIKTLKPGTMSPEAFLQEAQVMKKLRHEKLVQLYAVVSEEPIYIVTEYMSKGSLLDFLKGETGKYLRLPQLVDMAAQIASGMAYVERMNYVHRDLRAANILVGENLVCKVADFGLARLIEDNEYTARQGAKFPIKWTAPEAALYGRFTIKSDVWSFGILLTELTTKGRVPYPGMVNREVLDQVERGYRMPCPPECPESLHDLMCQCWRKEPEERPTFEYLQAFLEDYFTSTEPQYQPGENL", "assay": "Src-Y416 phosphorylation in 435.eB cells", "assay_type": "cell-based", "details": "vs solvent 10% DMSO", "method": "(§1) Preparation of Cell Lysates, Immunoprecipitation, and Western Blot Analysis. Cells at 70%-80% confluence were treated with each reagent indicated in the individual experiments. For PTEN phosphotyrosine immunoblots, ErbB2 IP, and Src IP, cells were treated with 30 mM pervanadate for 10 min as described (Lu et al., 2003). Unless noted, cells were washed with PBS and lysed in IP buffer with protease inhibitor cocktail (Sigma Chemical Co., St. Louis, Mo.). Immunoprecipitation and Western blot analysis were performed (Yu et al., 1998)."}, "PTEN [1]": {"test_system": "PTEN", "assay": "PTEN tyrosine phosphorylation in 435.eB cells", "assay_type": "cell-based", "details": "vs solvent 10% DMSO", "method": "as §1"}, "BT474 cells": {"test_system": "BT474 cells", "assay": "Cell viability assay of BT474 cells", "assay_type": "cell-based, human", "details": "paclitaxel alone without trastuzumab", "method": "(§2) Cell viability assay. Cells were seeded at 1-5×10^3 cells/well in 96-well plates after oligonucleotide transfection. Viable cells were determined by CellTiter 96 AQueous Non-Radioactive Cell Proliferation Assay (Promega, Madison, Wis.)."}, "PTEN [2]": {"test_system": "PTEN", "assay": "PTEN expression after antisense transfection in vitro", "assay_type": "cell-based, human", "details": "SKBr3 cells, 25 nM, vs mock or mismatched (MIS) oligonucleotides", "method": "Antisense Delivery in vitro. Antisense oligonucleotides against PTEN (ISIS116847: 5′-[…]-3′) (SEQ ID NO:3) and control oligonucleotides (ISIS 116848: 5′-[…]-3′ (SEQ ID NO:4), with six base mismatches to ISIS 116847) have been described (Butler et al., 2002). Cells were plated in 100-mm dishes at 30% confluence and transfected with oligonucleotides (12.5 nM for BT474 and 25 nM for SKBr3 cells) twice using Oligofectamine (Life Technologies, Rockville, Md.) 24 and 72 h post-plating. Ninety-six hours post-plating, cells were re-plated for individual assays described in this report. PTEN expression was determined 120 h post-plating (FIG. 2A).\nas §1"}, "SKBr3 cells": {"test_system": "SKBr3 cells", "assay": "Cell proliferation of SKBr3 cells (MTS assay)", "assay_type": "cell-based, human", "details": "PTEN AS alone without trastuzumab, vs MIS", "method": "as §2"}, "PTEN [3]": {"test_system": "PTEN", "assay": "PTEN expression in BT474 xenografts injected with oligonucleotides", "assay_type": "in vivo, mice", "details": "intratumor injection 15 μg/injection twice a week for 1 week, ErbB2 expression remained the same", "method": "Animal experiment. Female athymic nude mice (Harlan Sprague Dawley, Indianapolis, Ind.) were implanted with 0.72-mg 60-day-release 17β-estradiol pellets (Innovative Research, Sarasota, Fla.) and irradiated at 3.5 Gy prior to inoculation. BT474 cells (8×10^6) in 200 μl of PBS and Matrigel (BD Biosciences, Bedford, Mass.) mixture (1:1 ratio) were injected subcutaneously into a mouse mammary fat pad (mfp). When the mfp tumor volume reached >150 mm^3, the tumor was treated with PTEN antisense or control mismatched oligonucleotides (30 μg/week) in saline. […] Tumor diameters were serially measured with calipers and tumor volumes calculated: volume=width^2×length/2. Each treatment group contained 8-12 mice. Unpaired Student's t-test was used to assess statistical significance."}},
  "note": "Entries after “also recorded” stand apart in the source; their conditions may differ.",
  "data": [
    {"molecule": "CC(C)(C)n1nc(-c2ccc(Cl)cc2)c2c(N)ncnc21", "note": "[PP2]", "values": [
      {"measurement": "Src phosphorylation on Y416", "setting": "Src", "result": "effectively inhibited Src phosphorylation on Y416"},
      {"measurement": "tyrosine phosphorylation of PTEN", "setting": "PTEN [1]", "result": "dramatically reduced tyrosine phosphorylation of PTEN"}
    ]},
    {"molecule": "CC(=O)O[C@H]1C(=O)[C@@]2(C)[C@H]([C@H](OC(=O)c3ccccc3)[C@]3(O)C[C@H](OC(=O)[C@H](O)[C@@H](NC(=O)c4ccccc4)c4ccccc4)C(C)=C1C3(C)C)[C@]1(OC(C)=O)CO[C@@H]1C[C@@H]2O", "note": "[paclitaxel]", "values": [
      {"measurement": "cell viability, PTEN AS-transfected vs MIS control-transfected cells", "setting": "BT474 cells", "result": "no statistically significant difference in cell viability"}
    ]},
    {"molecule": "PTEN AS: Antisense oligonucleotides against PTEN, 5′-CTGCTAGCCTCTGGATTTGA-3′ (SEQ ID NO:3) (listed as DNA, chemistry not given here)", "values": [
      {"measurement": "endogenous PTEN expression", "setting": "PTEN [2]", "result": "inhibited endogenous PTEN expression; also recorded: reduced"},
      {"measurement": "cell proliferation", "setting": "SKBr3 cells", "result": "no significant effect on cell proliferation"},
      {"measurement": "PTEN expression in tumor xenografts", "setting": "PTEN [3]", "result": "effectively inhibited; also recorded: reduced"}
    ]}
  ]
}
